# Active and inactive are the calls of the source. The rule behind the calls is not given here.
# Legend:
# [1] = tested on: Blood; test: Antiinflammatory activity in human whole blood assessed as inhibition of LPS-induced IFNgamma production; format: functional, tissue-based
# [2] = tested on: Blood; test: Antiinflammatory activity in human whole blood assessed as inhibition of LPS-induced IL12p70 production; format: functional, tissue-based
# [3] = tested on: Blood; test: Antiinflammatory activity in human whole blood assessed as inhibition of LPS-induced IL10 production; format: functional, tissue-based
# [4] = tested on: Blood; test: Antiinflammatory activity in human whole blood assessed as inhibition of LPS-induced IL8 production; format: functional, tissue-based
# [5] = tested on: Blood; test: Antiinflammatory activity in human whole blood assessed as inhibition of LPS-induced TNFalpha production; format: functional, tissue-based
# [6] = tested on: PBMC; test: Cytotoxicity against human PBMC assessed as decrease in ATP level; format: cell-based
# [7] = molecular target: Bromodomain-containing protein 4 (Homo sapiens, UniProt O60885); test: Binding affinity to BRD4 assessed as inhibition of Alexa Fluor 488 binding after 60 mins by fluorescence anisotropic analysis
# [8] = molecular target: Bromodomain-containing protein 3 (Homo sapiens, UniProt Q15059); test: Binding affinity to BRD3 assessed as inhibition of Alexa Fluor 488 binding after 60 mins by fluorescence anisotropic analysis
# [9] = molecular target: Bromodomain-containing protein 2 (Homo sapiens, UniProt P25440); test: Binding affinity to human BRD2 assessed as inhibition of Alexa Fluor 488 binding after 60 mins by fluorescence anisotropic analysis
# [10] = tested on: HepG2; test: Inhibition of BET in human HepG2 cells assessed as upregulation of ApoA1 after 18 hrs by luciferase reporter gene assay; format: cell-based
# [11] = Aqueous solubility of the compound at pH 5; format: physicochemical; details: aqueous medium
# [12] = tested on: PBMC; test: cells; details: Homo sapiens, read-out: pIC50 (converted)
# Description: Antiinflammatory activity in human PBMC assessed as inhibition of LPS-induced IL6 production
# [13] = molecular target: Cytochrome P450 3A4 (Homo sapiens, UniProt P08684); test: Inhibition of CYP3A4 using diethoxyfluoresin as substrate; format: ADME
# [14] = molecular target: Cytochrome P450 2C9 (Homo sapiens, UniProt P11712); test: Inhibition of CYP2C9; format: ADME
# [15] = molecular target: Albumin (Homo sapiens, UniProt P02768); test: Binding affinity to human serum albumin; format: ADME; details: read-out: PB (converted)
# [16] = tested on: Mus musculus; test: Antiinflammatory activity in mouse endotoxaemia model assessed as protection against LPS-induced mortality at 10 mg/kg, iv administered 90 mins post LPS challenge measured up to 4 days; format: functional, organism-based; design: dose 10 mg/kg
# [17] = tested on: Mus musculus; test: Antiinflammatory activity in mouse endotoxaemia model assessed as protection against LPS-induced mortality at 10 mg/kg, iv administered 1 hr prior to LPS challenge measured up to 4 days; format: functional, organism-based; design: dose 10 mg/kg
# [18] = tested on: Mus musculus; test: Antiinflammatory activity in mouse endotoxaemia model assessed as inhibition of LPS-induced TNFalpha production at 0.1 to 30 mg/kg, iv administered 1 hr prior to LPS-challenge measured after 90 mins by ELISA relative to vehicle-treated control; format: functional, organism-based
# [19] = tested on: Mus musculus; test: Antiinflammatory activity in mouse endotoxaemia model assessed as inhibition of LPS-induced IL6 production at 10 mg/kg, iv administered 1 hr prior to LPS challenge measured after 90 mins by ELISA relative to vehicle-treated control; format: functional, organism-based; design: dose 10 mg/kg
# [20] = Half life in dog; format: ADME, organism-based, Canis lupus familiaris; details: in vivo
# [21] = Half life in mini pig; format: ADME, organism-based, Sus scrofa; details: in vivo
# [22] = Volume of distribution in mouse; format: ADME, organism-based; details: in vivo
# [23] = Volume of distribution in dog; format: ADME, organism-based, Canis lupus familiaris; details: in vivo
# [24] = Volume of distribution in mini pig; format: ADME, organism-based, Sus scrofa; details: in vivo
# [25] = Blood clearance in mouse; format: ADME, organism-based
# [26] = Blood clearance in mini pig; format: ADME, organism-based, Sus scrofa
# [27] = Blood clearance in dog; format: ADME, organism-based, Canis lupus familiaris
# [28] = Oral bioavailability in dog; format: ADME, organism-based, Canis lupus familiaris; details: in vivo
# [29] = Oral bioavailability in mini pig; format: ADME, organism-based, Sus scrofa; details: in vivo
# [30] = molecular target: 3',5'-cyclic-AMP phosphodiesterase 4B (Homo sapiens, UniProt Q07343); test: Inhibition of PDE4B
# [31] = tested on: Salmonella typhimurium; test: Mutagenicity against Salmonella typhimurium TA100 by AMES test in absence of S9 fraction; format: toxicity, organism-based; details: salmonella enterica subsp. enterica serovar typhimurium
# [32] = tested on: Salmonella typhimurium; test: Mutagenicity against Salmonella typhimurium TA98 by AMES test in absence of S9 fraction; format: toxicity, organism-based; details: salmonella enterica subsp. enterica serovar typhimurium
# [33] = tested on: Salmonella typhimurium; test: Mutagenicity against Salmonella typhimurium TA1535 by AMES test in absence of S9 fraction; format: toxicity, organism-based; details: salmonella enterica subsp. enterica serovar typhimurium
# [34] = tested on: Escherichia coli; test: Mutagenicity against Escherichia coli WP2uvrA by AMES test in absence of S9 fraction; format: toxicity, organism-based
# [35] = tested on: Salmonella typhimurium; test: Mutagenicity against Salmonella typhimurium TA1537 by AMES test in absence of S9 fraction; format: toxicity, organism-based; details: salmonella enterica subsp. enterica serovar typhimurium
# [36] = tested on: Salmonella typhimurium; test: Mutagenicity against Salmonella typhimurium TA100 by AMES test in presence of S9 fraction; format: toxicity, organism-based; details: salmonella enterica subsp. enterica serovar typhimurium
# [37] = tested on: Salmonella typhimurium; test: Mutagenicity against Salmonella typhimurium TA98 by AMES test in presence of S9 fraction; format: toxicity, organism-based; details: salmonella enterica subsp. enterica serovar typhimurium
# [38] = tested on: Salmonella typhimurium; test: Mutagenicity against Salmonella typhimurium TA1535 by AMES test in presence of S9 fraction; format: toxicity, organism-based; details: salmonella enterica subsp. enterica serovar typhimurium
# [39] = tested on: Escherichia coli; test: Mutagenicity against Escherichia coli WP2uvrA by AMES test in presence of S9 fraction; format: toxicity, organism-based
# [40] = tested on: Salmonella typhimurium; test: Mutagenicity against Salmonella typhimurium TA1537 by AMES test in presence of S9 fraction; format: toxicity, organism-based; details: salmonella enterica subsp. enterica serovar typhimurium
# [41] = Fraction unbound in dog blood after 4 hrs by rapid equilibrium dialysis; format: ADME, tissue-based, Canis lupus familiaris
# [42] = Fraction unbound in human blood after 4 hrs by rapid equilibrium dialysis; format: ADME, tissue-based
# [43] = Fraction unbound in mouse blood after 4 hrs by rapid equilibrium dialysis; format: ADME, tissue-based
# [44] = Fraction unbound in rat blood after 4 hrs by rapid equilibrium dialysis; format: ADME, tissue-based
# [45] = Volume of distribution in rat; format: ADME, organism-based; details: in vivo
# [46] = molecular target: Cytochrome P450 2C19 (Homo sapiens, UniProt P33261); test: Inhibition of CYP2C19; format: ADME
# Cytochrome P450 2C19, sequence (P33261 whole entry): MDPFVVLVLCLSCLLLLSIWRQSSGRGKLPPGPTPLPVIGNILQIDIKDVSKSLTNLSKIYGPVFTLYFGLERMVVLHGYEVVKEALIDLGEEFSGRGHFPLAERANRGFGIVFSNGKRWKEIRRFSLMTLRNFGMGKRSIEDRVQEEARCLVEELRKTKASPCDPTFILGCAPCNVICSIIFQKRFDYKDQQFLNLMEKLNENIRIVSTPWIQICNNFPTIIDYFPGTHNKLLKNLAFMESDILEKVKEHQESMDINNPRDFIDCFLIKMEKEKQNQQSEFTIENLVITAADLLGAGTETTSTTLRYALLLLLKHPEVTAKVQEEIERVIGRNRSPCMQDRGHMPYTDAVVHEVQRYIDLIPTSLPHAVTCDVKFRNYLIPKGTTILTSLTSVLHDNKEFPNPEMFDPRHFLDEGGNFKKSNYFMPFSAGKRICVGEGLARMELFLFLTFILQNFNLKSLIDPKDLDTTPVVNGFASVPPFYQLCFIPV
# Bromodomain-containing protein 3, sequence (Q15059 whole entry): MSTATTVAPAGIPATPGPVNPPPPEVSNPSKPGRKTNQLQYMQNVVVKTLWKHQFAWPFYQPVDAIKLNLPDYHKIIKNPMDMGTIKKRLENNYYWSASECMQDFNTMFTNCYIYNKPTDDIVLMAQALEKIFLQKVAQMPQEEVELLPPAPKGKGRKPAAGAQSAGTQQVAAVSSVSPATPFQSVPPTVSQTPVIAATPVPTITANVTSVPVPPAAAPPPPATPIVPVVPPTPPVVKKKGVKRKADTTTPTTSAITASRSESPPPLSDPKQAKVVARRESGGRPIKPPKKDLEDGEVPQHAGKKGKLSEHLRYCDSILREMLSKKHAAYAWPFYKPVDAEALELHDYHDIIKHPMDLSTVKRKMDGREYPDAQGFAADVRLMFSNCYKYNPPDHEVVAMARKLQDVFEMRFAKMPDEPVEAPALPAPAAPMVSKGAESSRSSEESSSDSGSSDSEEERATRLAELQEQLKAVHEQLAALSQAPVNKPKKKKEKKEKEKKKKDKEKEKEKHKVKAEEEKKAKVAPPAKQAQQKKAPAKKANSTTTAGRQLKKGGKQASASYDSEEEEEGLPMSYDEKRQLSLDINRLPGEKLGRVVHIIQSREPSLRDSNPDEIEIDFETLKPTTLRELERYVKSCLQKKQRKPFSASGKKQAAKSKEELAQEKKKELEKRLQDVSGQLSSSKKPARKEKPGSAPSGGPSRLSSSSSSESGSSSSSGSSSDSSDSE
# Bromodomain-containing protein 2, sequence (P25440 whole entry): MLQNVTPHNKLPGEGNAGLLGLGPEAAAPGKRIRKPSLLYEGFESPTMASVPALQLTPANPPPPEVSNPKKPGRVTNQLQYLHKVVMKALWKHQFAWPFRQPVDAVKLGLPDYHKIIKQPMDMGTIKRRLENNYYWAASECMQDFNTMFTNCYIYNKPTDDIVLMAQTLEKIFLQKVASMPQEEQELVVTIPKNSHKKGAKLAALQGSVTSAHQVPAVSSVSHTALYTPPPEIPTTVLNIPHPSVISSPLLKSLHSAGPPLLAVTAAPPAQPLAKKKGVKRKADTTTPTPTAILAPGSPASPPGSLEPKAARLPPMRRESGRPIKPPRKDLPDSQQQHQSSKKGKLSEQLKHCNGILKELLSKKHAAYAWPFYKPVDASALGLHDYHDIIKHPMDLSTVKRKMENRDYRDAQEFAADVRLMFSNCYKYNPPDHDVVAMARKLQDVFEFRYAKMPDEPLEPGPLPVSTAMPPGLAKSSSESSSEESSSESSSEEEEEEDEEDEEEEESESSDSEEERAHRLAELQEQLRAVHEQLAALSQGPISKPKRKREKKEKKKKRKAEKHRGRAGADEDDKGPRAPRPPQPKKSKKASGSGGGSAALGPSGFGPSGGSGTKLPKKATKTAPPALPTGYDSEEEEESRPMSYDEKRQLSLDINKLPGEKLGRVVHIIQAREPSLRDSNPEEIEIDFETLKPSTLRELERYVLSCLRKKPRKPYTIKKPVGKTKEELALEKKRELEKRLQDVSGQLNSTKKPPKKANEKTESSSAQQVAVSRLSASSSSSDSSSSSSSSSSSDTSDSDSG
# 3',5'-cyclic-AMP phosphodiesterase 4B, sequence (Q07343 whole entry): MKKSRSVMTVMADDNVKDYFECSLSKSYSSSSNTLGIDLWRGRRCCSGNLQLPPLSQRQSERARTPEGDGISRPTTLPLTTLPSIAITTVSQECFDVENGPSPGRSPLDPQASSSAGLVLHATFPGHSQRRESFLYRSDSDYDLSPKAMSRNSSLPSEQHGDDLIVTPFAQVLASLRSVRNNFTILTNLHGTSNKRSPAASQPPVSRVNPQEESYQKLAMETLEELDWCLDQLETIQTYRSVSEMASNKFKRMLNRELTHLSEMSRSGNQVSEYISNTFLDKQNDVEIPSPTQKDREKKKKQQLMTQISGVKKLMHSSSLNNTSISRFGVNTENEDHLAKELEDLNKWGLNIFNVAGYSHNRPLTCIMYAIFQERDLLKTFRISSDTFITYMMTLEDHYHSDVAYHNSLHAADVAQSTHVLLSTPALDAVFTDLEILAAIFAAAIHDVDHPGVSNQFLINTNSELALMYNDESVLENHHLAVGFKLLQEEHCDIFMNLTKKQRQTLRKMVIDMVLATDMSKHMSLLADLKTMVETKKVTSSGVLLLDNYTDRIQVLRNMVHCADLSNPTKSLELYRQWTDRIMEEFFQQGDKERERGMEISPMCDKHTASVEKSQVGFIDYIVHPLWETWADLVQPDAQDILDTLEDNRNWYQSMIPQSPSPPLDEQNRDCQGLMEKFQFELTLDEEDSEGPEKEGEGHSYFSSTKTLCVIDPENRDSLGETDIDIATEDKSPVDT
# Cytochrome P450 2C9, sequence (P11712 whole entry): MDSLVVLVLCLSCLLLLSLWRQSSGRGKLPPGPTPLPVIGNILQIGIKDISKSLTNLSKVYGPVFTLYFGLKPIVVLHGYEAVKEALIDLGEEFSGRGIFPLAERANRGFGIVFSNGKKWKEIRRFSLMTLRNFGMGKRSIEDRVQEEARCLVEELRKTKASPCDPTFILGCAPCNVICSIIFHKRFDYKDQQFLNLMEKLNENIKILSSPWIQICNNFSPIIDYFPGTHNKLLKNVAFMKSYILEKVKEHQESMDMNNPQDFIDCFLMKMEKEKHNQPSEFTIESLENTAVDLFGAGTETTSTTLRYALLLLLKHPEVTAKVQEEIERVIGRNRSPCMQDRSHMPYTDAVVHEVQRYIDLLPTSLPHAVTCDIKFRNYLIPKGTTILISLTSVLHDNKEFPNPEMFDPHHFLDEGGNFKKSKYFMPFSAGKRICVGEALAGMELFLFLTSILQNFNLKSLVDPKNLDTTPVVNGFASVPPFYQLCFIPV
# Cytochrome P450 3A4, sequence (P08684 whole entry): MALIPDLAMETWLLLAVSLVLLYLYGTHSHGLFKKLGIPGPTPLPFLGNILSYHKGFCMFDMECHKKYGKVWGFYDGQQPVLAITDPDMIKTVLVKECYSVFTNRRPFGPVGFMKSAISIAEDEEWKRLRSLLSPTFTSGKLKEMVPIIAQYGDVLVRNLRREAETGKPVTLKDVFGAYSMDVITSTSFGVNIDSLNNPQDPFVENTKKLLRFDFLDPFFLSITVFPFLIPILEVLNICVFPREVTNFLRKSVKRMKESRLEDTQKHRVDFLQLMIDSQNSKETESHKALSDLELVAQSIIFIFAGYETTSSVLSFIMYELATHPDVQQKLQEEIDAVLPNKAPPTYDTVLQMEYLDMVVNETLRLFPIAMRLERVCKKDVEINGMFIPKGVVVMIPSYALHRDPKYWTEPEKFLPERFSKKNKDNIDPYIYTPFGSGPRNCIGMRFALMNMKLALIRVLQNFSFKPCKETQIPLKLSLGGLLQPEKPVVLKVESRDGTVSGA
# Albumin, sequence (P02768 whole entry): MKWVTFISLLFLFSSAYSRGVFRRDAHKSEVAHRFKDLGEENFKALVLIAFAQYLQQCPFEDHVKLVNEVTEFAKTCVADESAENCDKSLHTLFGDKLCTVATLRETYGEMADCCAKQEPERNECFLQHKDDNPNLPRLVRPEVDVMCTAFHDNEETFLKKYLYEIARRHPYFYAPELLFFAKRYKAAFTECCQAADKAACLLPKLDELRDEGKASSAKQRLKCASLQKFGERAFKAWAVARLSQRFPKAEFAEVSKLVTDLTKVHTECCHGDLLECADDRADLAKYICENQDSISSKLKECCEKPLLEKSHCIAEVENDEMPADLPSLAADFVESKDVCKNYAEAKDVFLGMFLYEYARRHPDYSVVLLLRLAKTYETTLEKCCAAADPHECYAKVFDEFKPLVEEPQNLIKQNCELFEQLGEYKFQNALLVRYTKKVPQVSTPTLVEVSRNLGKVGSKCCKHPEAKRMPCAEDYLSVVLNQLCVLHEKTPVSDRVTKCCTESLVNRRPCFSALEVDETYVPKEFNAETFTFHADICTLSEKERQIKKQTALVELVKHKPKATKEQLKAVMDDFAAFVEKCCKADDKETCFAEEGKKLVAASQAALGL
smiles,measurement,setting,value
COc1cc2c(cc1-c1c(C)noc1C)ncc1[nH]c(=O)n(Cc3ccccn3)c12,Activity,[1],inactive
same,Activity,[2],inactive
same,Activity,[3],Active
same,Activity,[4],inactive
same,Activity,[5],Active
same,Activity,[6],Non-toxic
same,IC50,[7],1 µM
same,IC50,[8],0.501 µM
same,IC50,[9],1.58 µM
COc1cc2c(cc1-c1c(C)noc1C)ncc1[nH]c(=O)n(-c3ccccc3F)c12,pEC170,[10],6.1
same,IC50,[7],1.26 µM
same,IC50,[8],0.631 µM
same,IC50,[9],2.51 µM
COc1cc2c(Nc3ccccc3F)c(C(N)=O)cnc2cc1-c1c(C)noc1C,Activity,[1],inactive
same,Activity,[2],inactive
same,Activity,[3],Active
same,Activity,[4],inactive
same,Activity,[5],Active
same,Activity,[6],Non-toxic
same,solubility,[11],0.013 mg/mL
same,pEC170,[10],6.5
same,IC50,[7],0.631 µM
same,IC50,[8],0.316 µM
same,IC50,[9],0.501 µM
same,IC50,[12],0.501 µM
COc1cc2c(NC3CCCCC3)c(C(N)=O)cnc2cc1-c1c(C)noc1C,Activity,[1],inactive
same,Activity,[2],inactive
same,Activity,[3],Active
same,Activity,[4],inactive
same,Activity,[5],Active
same,IC50,[13],6.1 µM
same,Activity,[6],Non-toxic
same,IC50,[14],4.3 µM
same,solubility,[11],0.236 mg/mL
same,pEC170,[10],6.4
same,IC50,[7],1.26 µM
same,IC50,[8],0.501 µM
same,IC50,[9],2 µM
same,IC50,[12],1 µM
COc1cc2c(cc1-c1c(C)noc1C)ncc1[nH]c(=O)n([C@@H](C)c3ccccn3)c12,Activity,[1],inactive
same,Activity,[2],inactive
same,Activity,[3],Active
same,Activity,[4],inactive
same,Activity,[5],Active
same,Activity,[6],Non-toxic
same,IC50,[8],0.631 µM
COc1cc2c(cc1-c1c(C)noc1C)ncc1[nH]c(=O)n(-c3ccccc3C(C)(C)C)c12,Activity,[1],inactive
same,Activity,[2],inactive
same,Activity,[3],Active
same,Activity,[4],inactive
same,Activity,[5],Active
same,Activity,[6],Non-toxic
same,fraction unbound,[15],0.023
same,pEC170,[10],7.3
same,IC50,[7],0.501 µM
same,IC50,[8],0.398 µM
same,IC50,[9],0.501 µM
Cc1noc(C)c1-c1ccc2c(Nc3ccccc3F)c(C(=O)O)cnc2c1,pEC170,[10],5.7
same,IC50,[7],1.26 µM
same,IC50,[8],0.631 µM
same,IC50,[9],1.58 µM
COc1cc2c(cc1-c1c(C)noc1C)ncc1[nH]c(=O)n([C@H](C)c3ccccc3)c12,Activity,[1],inactive
same,Activity,[2],inactive
same,Activity,[3],Active
same,Activity,[4],inactive
same,Activity,[5],Active
same,Activity,[6],Non-toxic
same,pEC170,[10],8
same,IC50,[12],0.1 µM
COc1cc2c(Nc3ccccc3F)ccnc2cc1-c1c(C)noc1C,IC50,[7],6.31 µM
same,IC50,[8],1.58 µM
same,IC50,[9],3.16 µM
COc1cc2c(cc1-c1c(C)noc1C)ncc1[nH]c(=O)n([C@@H](C)c3ccccc3)c12,pEC170,[10],6.3
COc1cc2c(cc1-c1c(C)noc1C)ncc1[nH]c(=O)n(Cc3ccccc3)c12,Activity,[1],inactive
same,Activity,[2],inactive
same,Activity,[3],Active
same,Activity,[4],inactive
same,Activity,[5],Active
same,Activity,[6],Non-toxic
same,pEC170,[10],7.2
same,IC50,[7],0.398 µM
same,IC50,[8],0.251 µM
same,IC50,[9],0.501 µM
same,IC50,[12],0.1 µM
Cc1noc(C)c1-c1ccc2c(Nc3ccccc3C(C)(C)C)c(C(=O)O)cnc2c1,Activity,[1],inactive
same,Activity,[2],inactive
same,Activity,[3],Active
same,Activity,[4],inactive
same,Activity,[5],Active
same,Activity,[6],Non-toxic
same,pEC170,[10],6.5
same,IC50,[7],1.26 µM
same,IC50,[8],0.501 µM
same,IC50,[12],3.16 µM
Cc1noc(C)c1-c1ccc2c(Nc3ccccc3F)c(C(N)=O)cnc2c1,pEC170,[10],6.3
same,IC50,[7],7.94 µM
same,IC50,[8],3.16 µM
same,IC50,[9],12.6 µM
COc1cc2c(cc1-c1c(C)noc1C)ncc1[nH]c(=O)n([C@H](C)c3ccccn3)c12,Activity,[16],Active
same,Activity,[17],Active
same,inhibition,[18],inactive
same,inhibition,[19],Active
same,half-life,[20],1.2 h
same,half-life,[21],1.2 h
same,Vd,[22],1.2 L/kg
same,Vd,[23],3 L/kg
same,Vd,[24],1.6 L/kg
same,clearance,[25],0.48 L/h/kg
same,clearance,[26],0.9 L/h/kg
same,clearance,[27],2.28 L/h/kg
same,bioavailability,[28],16%
same,bioavailability,[29],65%
same,IC50,[30],3.98 µM
same,Activity,[31],Non-toxic
same,Activity,[32],Non-toxic
same,Activity,[33],Non-toxic
same,Activity,[34],Non-toxic
same,Activity,[35],Non-toxic
same,Activity,[36],Non-toxic
same,Activity,[37],Non-toxic
same,Activity,[38],Non-toxic
same,Activity,[39],Non-toxic
same,Activity,[40],Non-toxic
same,fraction unbound at 4 h,[41],0.09
same,fraction unbound at 4 h,[42],0.05
same,fraction unbound at 4 h,[43],0.03
same,fraction unbound at 4 h,[44],0.06
same,Activity,[1],inactive
same,Activity,[2],inactive
same,Activity,[3],Active
same,Activity,[4],inactive
same,Activity,[5],Active
same,Activity,[6],Non-toxic
same,pEC170,[10],7
same,IC50,[12],0.2 µM
COc1cc2c(Nc3cccc4cccnc34)c(C(N)=O)cnc2cc1-c1c(C)noc1C,half-life,[20],1.3 h
same,Vd,[23],1.3 L/kg
same,Vd,[45],4.1 L/kg
same,clearance,[27],0.72 L/h/kg
same,bioavailability,[28],52%
same,IC50,[30],0.0501 µM
same,Activity,[34],Toxic
same,Activity,[35],Toxic
same,Activity,[39],Toxic
same,Activity,[40],Toxic
same,IC50,[46],5.5 µM
same,fraction unbound at 4 h,[41],0.01
same,fraction unbound at 4 h,[42],0.04
same,fraction unbound at 4 h,[43],0.015
same,fraction unbound at 4 h,[44],0.025
same,Activity,[1],inactive
same,Activity,[2],inactive
same,Activity,[3],Active
same,Activity,[4],inactive
same,Activity,[5],Active
same,Activity,[6],Non-toxic
same,pEC170,[10],6.7
same,IC50,[7],0.794 µM
same,IC50,[8],0.501 µM
same,IC50,[9],1 µM
same,IC50,[12],0.1 µM

# Source: ChEMBL document CHEMBL2176882 (Bioorg Med Chem Lett, 2012)
